Measurements reported in US7732485B2, “Treatment of cancer” (The University of Manchester, priority 2003, dated 2010).

Assays:
A2780-S cell line = test: Growth inhibition assay (modified MTT); assay type: cell-based, human; settings: five-day MTT
Method: (§1) The sensitivities of the cell lines to cisplatinum, carboplatinum, and compounds A-F were determined using a growth inhibition assay which was a modified version of the MTT method (modified version of MTT method described in Appendix B).
(§2) The following is a brief description of the eleven different cell lines used in the growth inhibition assay: • The A2780 cell line (1 in FIGS. 1-9) is a human ovarian cell line which is sensitive to cisplatinum and carboplatinum. […] The cor123/cpr (7) cell line is a modified version of the cor123 cell line which has been modified to be resistant to cisplatinum and carboplatinum. • The ccu24 (8) cell line is an epithelial ovarian cancer cell line, developed at the Christie Hospital from a tumour biopsy, and the ccu24/cpr (9) cell line is a modified version of this cell line which is cisplatinum and carboplatinum resistant. • L1210 (10) is a murine leukemia cell line and L1210/M1140 (11) is its platinum drug resistant subline.
(§3) The cell toxicity studies were performed using a modification of the method MTT.^7 The principle of the assay is to assess the growth inhibitory effect of a drug at various doses over a five-day time course. This assay was performed in 96-well microtitre plates. Cells were seeded at densities of 400-1,000 cells per well, depending on the doubling time of the cell line. All cell dilutions were performed in growth medium containing 10% FCS (foetal calf serum).
(§4) Compounds under investigation were dissolved in DMSO (dimethylsulphoxide). Serial dilutions of compound were made into the cell suspension, ensuring that the proportion of DMSO remained below 0.5%. 200 μl of cells and drug mix was added to the 96-well plates in triplicate. The plates were incubated for five days at 5% CO2 and 37° C. After this time, the plates were removed from the incubator and 50 μl of a 3 mg/ml solution of MTT [3-(4,5-dimethyl-thiazol-2-yl)-2,5-diphenyl tetrazolium bromide] was added to each well and incubated in the same conditions for another 3 hours. The medium from each well was aspirated and the formazan crystals were solubilised in 200 μl of DMSO. The plates were read using a Multiskan platereader at 540 nm and 690 nm. Growth inhibition curves were constructed using mean and standard deviation of the triplicate absorbance values and from these curves the IC50 values were calculated.

A2780carb cell line = test: Growth inhibition assay (modified MTT); assay type: cell-based, human; settings: A2780carb, five-day MTT
Method: as §1, §2, §3, §4

A2780cis cell line = test: Growth inhibition assay (modified MTT); assay type: cell-based, human; settings: A2780cis, five-day MTT
Method: as §1, §2, §3, §4

ccu24 cell line = test: Growth inhibition assay (modified MTT); assay type: cell-based, human; settings: five-day MTT
Method: as §1, §2, §3, §4

ccu24/cpr cell line = test: Growth inhibition assay (modified MTT); assay type: cell-based, human; settings: five-day MTT
Method: as §1, §2, §3, §4

cor123 cell line = test: Growth inhibition assay (modified MTT); assay type: cell-based, human; settings: five-day MTT
Method: as §1, §2, §3, §4

cor123/cpr cell line = test: Growth inhibition assay (modified MTT); assay type: cell-based, human; settings: five-day MTT
Method: as §1, §2, §3, §4

mcp1 cell line = test: Growth inhibition assay (modified MTT); assay type: cell-based, human; settings: five-day MTT
Method: as §1, §2, §3, §4

mcp8 cell line = test: Growth inhibition assay (modified MTT); assay type: cell-based, human; settings: five-day MTT
Method: as §1, §2, §3, §4

L1210 cell line = test: Growth inhibition assay (modified MTT); assay type: cell-based, murine; settings: five-day MTT
Method: as §1, §2, §3, §4

L1210/M1140 cell line = test: Growth inhibition assay (modified MTT); assay type: cell-based, murine; settings: five-day MTT
Method: as §1, §2, §3, §4

A2780/mcp8 = test: Comet assay, DNA crosslinking; assay type: cell-based, human; settings: ratio >1 = more cross-linking in parental than in platinum-resistant line
Method: (§5) Preliminary studies have been carried out to investigate the mechanism underlying this increased sensitivity. These studies were carried out using the Comet assay (described in Appendix C), which measures damage to DNA. The results are shown in FIGS. 1 (cisplatinum), 2 (carboplatinum), 3 to 8 (compounds A-F) and 9 (phenylgoldtriphenylphospine, PAuP).
(§6) Table 3 illustrates the results of the following calculation using the DNA cross-linking results obtained in the Comet assays:
(§7) DNA damage was measured by the single cell gel electrophoresis (SCGE) assay or “Comet assay”, originally developed by Ostling and Johnson^8. This is a method for determining the extent of DNA damage and repair capacity within individual cells.^9-11 It has previously been shown that this technique can be used to investigate the mechanism of action of different DNA damaging agents.^12
(§8) Cells were trypsinised, suspended in 0.5 ml of ice cold fresh medium and transferred into plastic 24-well dishes prior to embedding in agarose. For the cross-linking studies treated and control samples were chilled on ice (to prevent any repair of DNA damage) and irradiated to a dose of 20 Gy in a Caesium-137 source (0.4 Gy/min). Control, (unirradiated, non-drug treated cells) were maintained on ice in the same manner as treated samples.
(§9) Glass microscope slides, frosted at one end, were pre-coated with 1% normal agarose in distilled water. These slides were allowed to air dry overnight prior to use. A 1% low melting point agarose (LMP) mixture in PBS was melted and held at 45° C. 1 ml of LMP was then added to 0.5 ml of cell suspension on ice and the resultant mixture was pipetted onto a pre-coated glass microscope slide and allowed to set for 1-2 minutes before being transferred to an ice tray. The slides were immersed in ice cold lysis solution (100 mM EDTA, 10 mM Tris-HCl, 1% Triton ×100, 1% DMSO, 2.5M NaCl) for 1 hr, and washed three times by immersion in fresh double distilled water for 15 minutes.
(§10) Slides were then placed onto a flat bed electrophoresis tank and covered (5-6 mm) with alkali unwinding solution (50 mM NaOH, 1 mM EDTA buffered to pH 12.5) and left under subdued lighting for 45 minutes to allow the DNA to unwind before being subjected to electrophoresis at 0.6V/cm for 25 minutes. Each slide was rinsed with 2×1 ml of 0.4M Tris-HCl, pH 8.0 and allowed to dry in air. The dried slides were then rehydrated for 20 minutes with double distilled water, 2×1 ml of propidium iodide solution (2.5 μg/ml) was added and staining was allowed to proceed for 15 minutes. Slides were then immersed in 1 litre of double distilled water for 1 hour to reduce excess background staining. The slides were cover slipped and then examined at 250× magnification under an epifluorescent microscope (Zeiss-Jenamed) using green light from a 50 watt mercury source with a 580 nm reflector and a 590 nm barrier filter set. Images were captured using an attached Sony HAD-1 interline CCD camera and Komet software analysis package (Kinetic Imaging). Twenty-five images from each of two duplicate slides were captured and analysed and the individual “comet moments” as defined by Olive et al^13, were calculated. The total fluorescence of the image represents the amount of DNA present and the length of the image, measured in pixels, represents the length of migration of the DNA. The head and tail areas of the image were identified and the intensity of each was determined. The tail moment is calculated by multiplying the fraction of DNA present in the tail by half the length of the tail.

A2780carb = test: Comet assay, DNA crosslinking; assay type: cell-based, human; settings: ratio >1 = more cross-linking in parental than in platinum-resistant line
Method: as §5, §6, §7, §8, §9, §10

A2780cis = test: Comet assay, DNA crosslinking; assay type: cell-based, human; settings: ratio >1 = more cross-linking in parental than in platinum-resistant line
Method: as §5, §6, §7, §8, §9, §10

A2780mcp1 = test: Comet assay, DNA crosslinking; assay type: cell-based, human; settings: ratio >1 = more cross-linking in parental than in platinum-resistant line
Method: as §5, §6, §7, §8, §9, §10

ccu24 = test: Comet assay, DNA crosslinking; assay type: cell-based, human; settings: ratio >1 = more cross-linking in parental than in platinum-resistant line
Method: as §5, §6, §7, §8, §9, §10

cor123 = test: Comet assay, DNA crosslinking; assay type: cell-based, human; settings: ratio >1 = more cross-linking in parental than in platinum-resistant line
Method: as §5, §6, §7, §8, §9, §10

L1210 = test: Comet assay, DNA crosslinking; assay type: cell-based, murine; settings: ratio >1 = more cross-linking in parental than in platinum-resistant line
Method: as §5, §6, §7, §8, §9, §10

[1] = Table 1, first series of assays
[2] = Table 2, further series of assays
[3] = Table 1, first series of assays, mcp1
[4] = Table 2, further series of assays, A2780/mcp1
[5] = Table 1, first series of assays, mcp8
[6] = Table 2, further series of assays, A2780/mcp8

Row | Compound | IC50 (A2780-S cell line; [1]) [nM] | IC50 (A2780-S cell line; [2]) [nM] | IC50 (A2780carb cell line; [1]) [nM] | IC50 (A2780carb cell line; [2]) [nM] | IC50 (A2780cis cell line; [1]) [nM] | IC50 (A2780cis cell line; [2]) [nM] | IC50 (ccu24 cell line; [1]) [nM] | IC50 (ccu24 cell line; [2]) [nM] | IC50 (ccu24/cpr cell line; [1]) [nM] | IC50 (ccu24/cpr cell line; [2]) [nM] | IC50 (cor123 cell line; [1]) [nM] | IC50 (cor123 cell line; [2]) [nM] | IC50 (cor123/cpr cell line; [1]) [nM] | DNA crosslinking (Comet) ratio (A2780/mcp8) | DNA crosslinking (Comet) ratio (A2780carb) | DNA crosslinking (Comet) ratio (A2780cis) | DNA crosslinking (Comet) ratio (A2780mcp1) | DNA crosslinking (Comet) ratio (ccu24) | DNA crosslinking (Comet) ratio (cor123) | DNA crosslinking (Comet) ratio (L1210) | further results
1 | c1ccc([PH]([Au][c]2cccc[c]2[Au][PH](c2ccccc2)(c2ccccc2)c2ccccc2)(c2ccccc2)c2ccccc2)cc1 [Compound C] | 12.8 | 15.2 | 0.5 | 0.8 | 0.3 | 0.6 | 20.2 | 23.2 | 3.3 | 6.3 | 14.4 | 17.6 | 1.4 | 0.41 | 0.36 | 0.36 | 0.38 | 0.37 | 0.38 | 0.71 | IC50 (cor123/cpr cell line; [2]): 4.4 nM; IC50 (mcp1 cell line; [3]): 0.5 nM; IC50 (mcp1 cell line; [4]): 3.5 nM; IC50 (mcp8 cell line; [5]): 0.5 nM; IC50 (mcp8 cell line; [6]): 4.6 nM; IC50 (L1210 cell line; [1]): 42.7 nM; IC50 (L1210 cell line; [2]): 45.8 nM; IC50 (L1210/M1140 cell line; [1]): 5.2 nM; IC50 (L1210/M1140 cell line; [2]): 8.4 nM
2 | [Au][c]1ccc[c]([Au])c1.c1ccc(P(c2ccccc2)c2ccccc2)cc1.c1ccc(P(c2ccccc2)c2ccccc2)cc1 [B] | 9.8 | 12.1 | 0.4 | 0.7 | 0.2 | 0.6 | 18.7 | 21.8 | 2.1 | 5.1 | 12.6 | 15.8 | 1.2 | 0.39 | 0.37 | 0.36 | 0.40 | 0.39 | 0.38 | 0.47 | IC50 (cor123/cpr cell line; [2]): 4.3 nM; IC50 (mcp1 cell line; [3]): 0.4 nM; IC50 (mcp1 cell line; [4]): 3.5 nM; IC50 (mcp8 cell line; [5]): 0.4 nM; IC50 (mcp8 cell line; [6]): 5.4 nM; IC50 (L1210 cell line; [1]): 26.6 nM; IC50 (L1210 cell line; [2]): 29.6 nM; IC50 (L1210/M1140 cell line; [1]): 4.1 nM; IC50 (L1210/M1140 cell line; [2]): 7.2 nM
3 | c1ccc([PH]([Au][CH2]c2cc[c]([Au][PH](c3ccccc3)(c3ccccc3)c3ccccc3)cc2)(c2ccccc2)c2ccccc2)cc1 [D] | 32.4 | 36.6 | 10.3 | 13.5 | 7.3 | 10.2 | 36.4 | 39.5 | 12.5 | 15.6 | 22.3 | 25.4 | 15.7 | 0.50 | 0.63 | 0.54 | 0.48 | 0.47 | 0.62 | 0.63 | IC50 (cor123/cpr cell line; [2]): 19.7 nM; IC50 (mcp1 cell line; [3]): 8.4 nM; IC50 (mcp1 cell line; [4]): 19.5 nM; IC50 (mcp8 cell line; [5]): 6.8 nM; IC50 (mcp8 cell line; [6]): 14.8 nM; IC50 (L1210 cell line; [1]): 48.7 nM; IC50 (L1210 cell line; [2]): 50.3 nM; IC50 (L1210/M1140 cell line; [1]): 17.4 nM; IC50 (L1210/M1140 cell line; [2]): 20.6 nM
4 | [Au(η2-C6H4CH═NC6H5)Cl2] [Au (III), reference compound] | – | – | – | – | – | – | – | – | – | – | – | – | – | 0.69 | 0.71 | 0.67 | 0.72 | 0.78 | 0.83 | 0.54 | –
5 | c1ccc([PH]([Au][CH2]c2cccc[c]2[Au][PH](c2ccccc2)(c2ccccc2)c2ccccc2)(c2ccccc2)c2ccccc2)cc1 [F] | 20.4 | 24.3 | 7.3 | 10.4 | 5.4 | 8.3 | 22.1 | 26.4 | 9.5 | 12.2 | 28.2 | 31.1 | 11.4 | 0.56 | 0.61 | 0.52 | 0.54 | 0.60 | 0.62 | 0.53 | IC50 (cor123/cpr cell line; [2]): 14.6 nM; IC50 (mcp1 cell line; [3]): 6.3 nM; IC50 (mcp1 cell line; [4]): 10.4 nM; IC50 (mcp8 cell line; [5]): 5.3 nM; IC50 (mcp8 cell line; [6]): 11.4 nM; IC50 (L1210 cell line; [1]): 28.1 nM; IC50 (L1210 cell line; [2]): 31.2 nM; IC50 (L1210/M1140 cell line; [1]): 11.4 nM; IC50 (L1210/M1140 cell line; [2]): 14.4 nM
